Experimental data: patent US6774254B2, “Gold complexes” (National University of Singapore, priority 2000, dated 2004)

Assays:
[1] = tested on: Daudi (B-cell lymphoma); experiment: human suspension tumor cell line assay, Daudi; assay type: cell-based; settings: 2 h exposure, cells counted after 5 days; read-out: cytotoxicity IC50, Daudi
Protocol: (§1) The human suspension tumor cell line assay determines the ability of a compound to inhibit the cells' ability to divide in vitro after a two hour exposure to the compound. The panel of human suspension tumor cell lines consist of Raji (B-cell lymphoma), Daudi (B-cell lymphoma), P3HR-1(B-cell lymphoma), and Molt-4 (T-cell leukemia). The cytotoxicity tests were carried out in vitro according to the following protocol:
(§2) Cryopreserved tumor cells were thawed and cultured in the media RPMI-1640 supplemented with 10% fetal calf serum (FCS) and 100 units/mL penicillin and 100 μg/mL streptomycin (“media R10”), in a 5% CO2 humidified incubator at 37° C. They were subcultured every three days in a 75 cm^2 tissue culture flask.
(§3) A hemocytometer with four 1×1×0.1 mm^3 cells was used to count the cell concentration of a specified cell suspension solution. Trypan Blue was used to determine the viability of the counted cells, as live cells can exclude the dye penetration.
(§4) Each of Raji, Daudi, P3HR-1 and Molt-4 cells were dispensed into 6-well petri plates with 30,000 cells per well and were labelled in groups of three. A drug solution with a specified concentration was freshly prepared by dilution of a gold complex solution (1 mM) in DMSO with the media R10. […] The number of cells in each well was counted and the average value of triplicate samples were determined for each drug concentration.

[2] = tested on: Molt-4 (T-cell leukemia); experiment: human suspension tumor cell line assay, Molt-4; assay type: cell-based; settings: 2 h exposure, cells counted after 5 days; read-out: cytotoxicity IC50, Molt-4
Protocol: as §1, §2, §3, §4

[3] = tested on: P3HR-1 (B-cell lymphoma); experiment: human suspension tumor cell line assay, P3HR-1; assay type: cell-based; settings: 2 h exposure, cells counted after 5 days; read-out: cytotoxicity IC50, P3HR-1
Protocol: as §1, §2, §3, §4

[4] = tested on: Raji (B-cell lymphoma); experiment: human suspension tumor cell line assay, Raji; assay type: cell-based; settings: 2 h exposure, cells counted after 5 days; read-out: cytotoxicity IC50, Raji
Protocol: as §1, §2, §3, §4

[5] = tested on: Mahlavu (liver cancer); experiment: cytotoxicity against human adherent tumor cell line Mahlavu; assay type: cell-based; settings: four hours exposure, cells counted after 5 days
Protocol: In addition, cytotoxicities of (Sp)-1 and (Rp)-1 against a human adherent tumor cell line, Mahlavu (liver cancer), were also evaluated according to the following protocol:
Cryopreserved Mahlavu cells were thawed and cultured as a monolayer in the media M10 (Dulbecco's modified eagle's medium supplemented with 10% FCS and 100 units/mL penicillin and 100 μg/mL streptomycin) in a 75 cm^2 tissue culture flask. The flask was kept in a 5% CO2 humidified incubator at 37° C. Since the cells attached strongly to the bottom of culture flask, trypsin solution in PBS was used to detach the cells and then the Mahlavu cells were washed and counted as suspension cells.
10,000 cells were placed into each well of 6-well petri plates and incubated overnight to allow attachment to the plate. Triplicate samples of cells were allowed to react with the gold(I) complexes at three concentrations for four hours, followed by removal of the media. As before, a control with no drug treatment was included. The plates were then washed once with PBS(5 mL) and fresh media M10 (3 mL) was added. The plates were incubated at 37° C. in a CO2 incubator for 5 days. The Mahlavu cells In each well were trypsinized and counted as usual.
The IC50 values of (Sp)-I and (Rp)-I against this adherent tumor cell line were 6 and 8 μM, respectively. The IC50 values were determined as described above.

[6] = tested on: K36 lymphoma (T-cell lymphoma); experiment: in vivo anti-tumor activity, K36 lymphoma in AKR mice (primary screen); settings: at MTTD, i.p. Day 1-7, tumor weights Day 8-11
Protocol: (§5) The in vivo anti-tumor activities of the phosphino-gold(I) compounds were evaluated using a murine tumor model, K36 lymphoma (T-cell lymphoma), inoculated subcutaneously into the AKR inbred mice. K36 lymphoma is a transformed cell line which originated from the AKR mice infected with murine leukemic retrovirus. The K36 lymphoma cells are naturally tumorigenic in syngenic AKR mice and is non-immunogenic to the host mice. The in vivo tests were carried out according to the following protocol:
Day 0: K36 lymphoma cells were washed with phosphate-buffered saline (PBS) for three times and suspended in RPMI 1640 medium at the concentration of 10×10^6 cells/mL 10^6 cells in 0.1 mL of the medium were implanted subcutaneously into each of the two flanks of inbred AKR mice with a ½-in, 28-gauge, 1-mL syringe. The mice were then randomly distributed into control and treatment groups with 5 mice/group.
Day 1-7: The desired dose of a test agent was dissolved in a minimum amount (<50 μL) of dimethylacetamide (DMA), followed by addition of Cremaphor_EL (polyethoxylated castor oil, <30 μL) with mixing. Saline was added to dilute the drug solution and the desired dose was delivered in a volume of 5×0.3 mL for one group of mice (5 mice per group). In this case, the final concentration of dimethylacetamide was less than 3.3% and that of the carrier less than 2%. Formulation of a test agent was carried out just before injection into the animals. The test agent was injected intraperitoneally into the treatment groups of mice twice a day following the flexible schedule as recommended in the literature (Corbett, T. H.; Valeriote, F. A; LoRusso, P.; Polin, L; et. al. In “Anticancer Drug Development Guide: Preclinical Screening, Clinical Trials, and Approval”, (Ed. Teicher, B. A.), Humana Press Inc., Totowa, N.J., 1997 p 75-99.) to reach the most tolerated drug dose.
(§6) Day 8-11: Tumor weights were estimated from two-dimensional measurement, following the formula:
(§7) Tumor weight (in mg)=(a×b^2)/2,
wherein a and b are tumor length and width (in mm), respectively. The usual T/C value was used to assess the in vivo anti-tumor activity. T refers to the total tumor weight of the treatment group (including zeros), whereas, C refers to the total tumor weight of the non-treatment control group (including zeros). According to the NCI (National Cancer Institute in USA) standard, a T/C value of 42% is considered significant anti-tumor activity.
Furthermore, two compounds cisplatin (cis-diaminedichloroplatinum(II)) and [Au(dppe)2]Cl (dppe: 1,2-bis(diphenylphosphino)ethane) with known anti-tumor activities were also included in the In vivo test Table 2 summarizes the anti-tumor activities of (Sp)-1 and (Rp)-1.

[7] = tested on: K36 lymphoma; experiment: secondary in vivo evaluation, K36 lymphoma at three dosage levels; design: species or system AKR mice
Protocol: as §5
The mice were then randomly distributed into control and treatment groups with 5 mice/group.
Day 1-7: The desired dose of a test agent was dissolved in a minimum amount (<50 μL) of dimethylacetamide (DMA), followed by addition of Cremaphor_EL (polyethoxylated castor oil, <30 μL) with mixing. Saline was added to dilute the drug solution and the desired dose was delivered in a volume of 5×0.3 mL for one group of mice (5 mice per group). […] Formulation of a test agent was carried out just before injection into the animals.
as §6, §7
wherein a and b are tumor length and width (in mm), respectively. The usual T/C value was used to assess the in vivo anti-tumor activity. T refers to the total tumor weight of the treatment group (including zeros), whereas, C refers to the total tumor weight of the non-treatment control group (including zeros).
In addition, three dose levels of 0.67 decrements were used in the secondary in vivo evaluation studies of (Sp)-1 and (Rp)-1 against the K36 lymphoma. The purpose of testing at multiple dosage levels is to exclude agents with exceptionally steep dose-response curves, where only the most tolerated dose is active.

[8] = tested on: advanced K36 lymphoma; experiment: advanced K36 lymphoma model, treatment from Day 7; assay type: in vivo, AKR mice; settings: for average ILS % (Increased Life Span): control average life span 21 days after tumour implantation; for anti-tumor activity against advanced K36 tumor model in words (FIG. 1): treatment from Day 7, i.p. twice a day; for MTTD in advanced K36 model: treatment from Day 7, up to 4 days
Protocol: On Day 0, AKR mice were injected with K36 lymphoma cells. On Day 7, mice were divided into control and treatment groups. Treatment groups were injected intraperitoneally with either cisplatin, (Sp)-1, or (Rp)-1. Control groups were […] treated with any of the above compounds. On each subsequent day, the 3 treatment groups were injected with the respective compounds twice a day. Tumor weights were estimated from two-dimensional measurements on each day.
The anti-tumor activities of (Sp)- and (Rp)-I were also assessed against advanced K36 lymphoma model. Also, the active positive control, cisplatin, was included in the evaluation.
The protocol design for this test was similar as described above except that drug administrations began on Day 7 (Day 0 is the date of implantation). At this stage, the tumor sizes on mice averaged around 9×8 mm and the estimated average tumor weight was about 300 mg. Due to the extremely fast growth of the K36 lymphoma (the double time is around 1 day), there was limited time (up to 4 days) to escalate the drug dosage to the most tolerated level, before the tumor became too big to give a positive response to any drug treatment.
The results are visualised in FIG. 1. […] They can markedly retard the tumor growth during the period of drug treatment and even after treatment. The average ILS % (Increased Life Span) of (Sp)-I and (Rp)-I was 48% and 31%, respectively (the average life span of the control group was 21 days after tumour implantation). Particularly, one mouse treated with (Sp)-I survived for 48 days after tumour implantation.

[9] = dose levels of 54 and 36 μmol/kg

Row | SMILES | IC50 [1] [nM] | IC50 [2] [nM] | IC50 [3] [nM] | IC50 [4] [nM] | IC50 [5] [nM] | T/C (tumor weight treated/control x 100) [6] [%] | T/C ([7]; dosage 24 μmol/kg) [%] | T/C ([7]; dosage 36 μmol/kg) [%] | T/C ([7]; dosage 54 μmol/kg) [%] | in vivo activity in words ([7]; dosage level of 24 μmol/kg) | in vivo activity in words [7, 9] | average ILS % (Increased Life Span) [8] [%] | anti-tumor activity against advanced K36 tumor model in words (FIG. 1) [8] | MTTD in advanced K36 model [8] [µmol/kg] | survival of one treated mouse after tumour implantation ([8]; one mouse) [days]
1 | CCOC(=O)C1C(P(c2ccccc2)c2ccccc2)C2C(C)=C(C)C1P2c1ccccc1.[Cl][Au].[Cl][Au] [(Rp)-I, μ-{(1α,4α,5α(S),6β(R),7R)-5-(diphenylphosphino)-2,3-dimethyl-6-(ethoxycarbonyl)-7-phenyl-7-phosphabicyclo[2.2.1]hept-2-ene-P5,P7}bis[chlorogold(I)]] | 500 | 1000 | 200 | 300 | 8000 | 6 | 38 | 14 | 6 | moderate activity | highly active | 31 | significant anti-tumor activities | 32 | –
2 | CCOC(=O)C1C(P(c2ccccc2)c2ccccc2)C2C(C)=C(C)C1P2c1ccccc1.[Cl][Au].[Cl][Au] [(Sp)-I, μ-{(1α,4α,5α(R),6β(S),7S)-5-(diphenylphosphino)-2,3-dimethyl-6-(ethoxycarbonyl)-7-phenyl-7-phosphabicyclo[2.2.1]hept-2-ene-P5,P7}bis[chlorogold(I)]] | 800 | 1000 | 500 | 500 | 6000 | 5 | 33 | 12 | 5 | moderate activity | highly active | 48 | significant anti-tumor activities | 32 | 48
3 | N.N.[Cl][Pt][Cl] [Cisplatin, cis-diaminedichloroplatinum(II), reference compound] | – | – | – | – | – | 6 | – | – | – | – | – | – | did not inhibit the growth of the advanced K36 lymphoma at all | 28 | –
4 | [Au+].[Cl-].c1ccc(P(CCP(c2ccccc2)c2ccccc2)c2ccccc2)cc1.c1ccc(P(CCP(c2ccccc2)c2ccccc2)c2ccccc2)cc1 [[Au(dppe)2]Cl, reference compound] | – | – | – | – | – | 12 | – | – | – | – | – | – | – | – | –
